Values quoted from earlier work in patent EP0426167A2, “Antitumor substance, process for preparing the same, and pharmaceutical composition containing the same” (MEIJI SEIKA KAISHA LTD., priority 1989, dated 1991).

Legend:
[1] = mouse, i.p.; cited from earlier work
[2] = tested on: P388 tumor cells; settings: result in words; cited from earlier work
[3] = tested on: P388 tumor cells; settings: result in words; cited from earlier work; remark: listed apart in the source

Cc1cc2c(c3oc(C4(C)OC4C4OC4C)cc(=O)c13)C(=O)c1c(ccc(C3CC(C)(N(C)C)C(O)C(C)O3)c1O)C2=O (stereo not drawn) [SF2587 substance]
LD₅₀ [1]: 0.5 to 1 mg/kg
therapeutic effects in mice transplanted with P388 tumor cells [2]: excellent therapeutic, effects
inhibitory activity on P388 tumor cells [3]: considerable inhibitory activity
